Experimental data: patent US20030198690A1, “Device and method for treating restenosis” (Medical Research Fund of Tel Aviv Sourasky Medical Center, priority 2002, published 2003)

How the values were obtained:
Wistar rats = experiment: Balloon dilation carotid injury in rats, morphometric and immunohistochemical analysis of arteries; type: in vivo
Description: (§1) Carotid injury was induced in Wistar rats by balloon dilation according to a conventional model (Clowes A W, Reidy M A, Clowes M M. Kinetic of cellular proliferation after arterial injury. Lab Invest 1983; 49:327-334). Rats were then injected daily i.p. with either zinc (at a concentration of 5 mg/kg) or saline (control) for 2 weeks until sacrifice. Arteries were taken for morphometeric and immunohistochemical analysis.

[1] = Levels of serum zinc in treated rats; type: in vivo, Wistar rats; settings: zinc 5 mg/kg i.p. daily for 2 weeks; p<0.01 vs control rats
Description: as §1
Levels of serum zinc were elevated in the zinc-treated rats (248.2±19.4 pg/ml) as compared to the control rats (136.8±7.2 pg/ml; p<0.01).

SMILES: [Zn] [zinc]
- inflammatory cell infiltrate (NF-κB and iNOS positive cells) (Wistar rats; immunohistochemical staining of arteries, zinc 5 mg/kg i.p. daily for 2 weeks): a reduction was evident
- external elastic lamina size (Wistar rats; zinc 5 mg/kg i.p. daily for 2 weeks after carotid balloon injury): without influencing
- neointimal area (Wistar rats; zinc 5 mg/kg i.p. daily for 2 weeks after carotid balloon injury, FIG. 1): reduced
- neointimal/medial ratio (Wistar rats; zinc 5 mg/kg i.p. daily for 2 weeks after carotid balloon injury, FIG. 2): reduced
- Levels of serum zinc [1]: 0.2482 ± 0.0194 ng/mL
